Read-outs that look alike come from different tables or passages of the source.
Key:
[1] = human, in vivo
Description: (§1) Analyses were performed for the bid dosing schedules and RP2D only.
(§2) Water was restricted from 1 h pre-dose until 1 h post-dose, except for the 240 mL of water administered with treatment.
(§3) Natural log-transformed AUC and Cmax were compared between fed/fasted conditions using a mixed effects analysis of variance model, which was fitted separately for each assessed dose. Estimates of the mean difference between treatments and corresponding 90% CI were calculated using a linear mixed effects model with a fixed effect for treatment (fed versus fasted) and a random effect for patients. Back transformed geometric means and 95% CIs were estimated for each condition.

[2] = test system: platinum-resistant ovarian cancer; conditions: adavosertib with carboplatin; cited from earlier work
[3] = test system: platinum-resistant or platinum-refractory recurrent ovarian cancer; conditions: adavosertib 175 mg qd days 1, 2, 8, 9, 15, 16 of a 28-day cycle with gemcitabine; 95% CI 3.6–6.4; cited from earlier work
clinical = conditions: human, in vivo
Description: as §1, §2, §3

[4] = test system: patients with locally advanced or metastatic solid tumors
Description: This was a Phase Ib, multicenter, open-label, dose-finding clinical trial (NCT02610075). […] Three types of treatment schedules were investigated: cohorts bid 1, bid 2, qd 1.1, qd 2.1 and qd 3.1 received bid or qd treatment on a 5/9 schedule (5 days on treatment, followed by 9 days off) on a 14-day cycle. Cohorts qd 1.2, qd 2.2, and qd 3.2 received treatment on a 5/2 schedule (5 days on followed by 2 days off for 2 of 3 weeks) in a 21-day cycle. Cohorts qd 2.3 and qd 3.3 received treatment on a weekly 5/2 schedule in a 21-day cycle (Table 1). The highest dose level(s) at which less than one-third of evaluable patients (none of 3 patients or 1 of 6 patients) experienced a dose-limiting toxicity (DLT) was declared the MTD.
DLTs were evaluated during the first 28 days (5/9 schedule) or the first 21 days (5/2 schedule) of treatment.

C=CCn1c(=O)c2cnc(Nc3ccc(N4CCN(C)CC4)cc3)nc2n1-c1cccc(C(C)(C)O)n1 [adavosertib, Adavosertib]
AUC0–10, geometric LS mean (95% CI) ([1]; 125 mg): 1658.8 (1017.1, 2705.3) h*nmol/L
AUC0–10, geometric LS mean (95% CI) ([1]; 150 mg): 3228.0 (1698.9, 6133.3) h*nmol/L
AUC0–10, geometric LS mean (95% CI) ([1]; 300 mg): 5340.4 (65.0, 439027.6) h*nmol/L
Cmax ([1]; 300 mg): 819 nM
Response rate [2]: 66.7%
PFS [3]: 4.6 months
Cmax (clinical; 125 mg): 276 nM
Cmax (clinical; 150 mg, Cmax, geometric LS mean (95% CI)): 464 nM
Maximum tolerated dose (MTD) ([4]; bid 5/9 schedule (cohort bid 1)): 125 mg
DLT nausea, occurrences ([4]; human, in vivo): 3 n
DLT thrombocytopenia, occurrences ([4]; human, in vivo): 3 n
Number of DLTs reported ([4]; human, in vivo): 12
Recommended Phase II dose (RP2D) ([4]; human, in vivo, 21 days): 300 mg
All other DLTs (dehydration, neutropenia, weight decrease, pneumonia, diarrhea, vomiting), occurrences each ([4]; in vivo): once
Maximum tolerated dose (MTD) ([4]; qd 5/2 for 2 of 3 weeks (cohort qd 3.2)): 300 mg
Maximum tolerated dose (MTD) ([4]; qd 5/9 schedule (cohort qd 3.1)): 300 mg
